Drawing on US10828301B2, “2,4-pyrimidinediamine compounds and their uses” (Rigel Pharmaceuticals, Inc, priority 2002, dated 2020), this text covers IC50 for 32 compounds.

In test [1] the test system is cultured human mast cells (CHMC). Nature of the test: CHMC low cell density ionomycin activation: tryptase assay. The class given is cell-based. The conditions noted are these: read-out: CHMC Ionomycin Tryptase.
The test system is the same in test [2]. Nature of the test: CHMC low cell density IgE activation: tryptase and LTC4 assays. The test is classed as cell-based. The settings on record: read-out: CHMC anti-IgE Tryptase. An outline of the steps: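 Cultured human mast cells at low density (1000-1500 per well) rested 1 h at 37° C, then stimulated with anti-IgE for 30 min at 37° C. Supernatant tryptase measured with fluorogenic substrate (30 min, room temperature); LTC4 quantified by ELISA on diluted supernatant.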

[3] abbreviates: Low Density CHMC, ionomycin activation, tryptase readout.
Setting [4] is: Low Density CHMC, anti-IgE activation, tryptase readout.
Setting [5] is: Homo sapiens, Mast cell, Low Density CHMC, ionomycin activation, tryptase readout.
[6] abbreviates: Homo sapiens, Mast cell, Low Density CHMC, anti-IgE activation, tryptase readout.

Take `COC(=O)c1ccc(CNc2nc(Nc3ccc4c(c3)OCCO4)ncc2C#N)cc1` [Compound R925820, 5-Cyano-N2-(3,4-ethylenedioxyphenyl)-N4-(methoxycarbonylbenzyl)-2,4-pyrimidinediamine]: the IC50 in test [1] (setting [3]) and in test [2] (setting [4]) was above 10 µM throughout.
As for `c1ccc(-c2ccccc2Nc2ccnc(Nc3ccccc3-c3ccccc3)n2)cc1` [Compound R925804, N2,N4-Bis(2-phenylphenyl)-2,4-pyrimidinediamine], the IC50 in test [1] (setting [5]) and in test [2] (setting [6]) was above 10 µM each time.
Take `Oc1cccc(Nc2nc(Nc3ccc(OCc4nnn[nH]4)cc3)ncc2C(F)(F)F)c1` [Compound R920846]: the IC50 in test [1] (setting [3]) and in test [2] (setting [4]) was above 10 µM throughout.
With `Cc1ccc(-c2ccccc2)cc1Nc1ncc(Br)c(Nc2cc(-c3ccccc3)ccc2C)n1` [Compound R925800, N2,N4-Bis(2-methyl-5-phenylphenyl)-5-bromo-2,4-pyrimidinediamine], the IC50 in test [1] (setting [5]) and in test [2] (setting [6]) was above 10 µM in each case.
As to `COc1ccc(Nc2ncc(Br)c(Nc3ccc(OC)c(-c4ccccc4)c3)n2)cc1-c1ccccc1` [Compound R925802, N2,N4-Bis(4-methoxy-3-phenylphenyl)-5-bromo-2,4-pyrimidinediamine], the IC50 in test [1] (setting [5]) and in test [2] (setting [6]) was above 10 µM each time.
With `Oc1cccc(Nc2cc(Cl)nc(Nc3cccc(O)c3)n2)c1` [Compound R926408, N2,N4-Bis(3-hydroxyphenyl)-6-chloro-2,4-pyrimidinediamine], the IC50 in test [1] (setting [5]) was above 10 µM; in test [2] (setting [6]), 9.6 µM.
For the compound `CCOC(=O)c1cc2cc(Nc3ncc(F)c(Nc4ccc(C(C)(C)C)cc4)n3)ccc2[nH]1` [Compound R926474, N4-(4-tert-Butylphenyl)-N2-(2-ethoxycarbonylindol-5-yl)-5-fluoro-2,4-pyrimidinediamine], the IC50 in test [1] (setting [5]) is above 10 µM; in test [2] (setting [6]) it was 2.5 µM.
The corresponding values for `Nc1nc(Nc2cccc(O)c2)ncc1Br` [Compound R935029, 4-Amino-5-bromo-N2-(3-hydroxyphenyl)-2-pyrimidineamine] are above 10 µM and 2.83 µM.
Taken in the same sequence, the figures for `COC(=O)c1ccc(Nc2ncc(F)c(Nc3ccc(C(=O)OC)c(OC)c3)n2)cc1OC` [Compound R945065, N2,N4-Bis(3-methoxy-4-methoxycarbonylphenyl)-5-fluoro-2,4-pyrimidinediamine] were above 10 µM and 1.43 µM.
The corresponding values for `COC(=O)c1cc2cc(Nc3ncc(F)c(Nc4ccc5oc(C(=O)OC)cc5c4)n3)ccc2o1` [Compound R926604, N2,N4-Bis(2-methoxycarbonylbenzofuran-5-yl)-5-fluoro-2,4-pyrimidinediamine] are above 10 µM and 2.85 µM.
In the case of `Oc1cccc(Nc2ncc(F)c(Nc3ccc(OC(F)(F)F)c(Cl)c3)n2)c1` [Compound R920411, N4-(3-Chloro-4-trifluoromethoxyphenyl)-5-fluoro-N2-(3-hydroxyphenyl)-2,4-pyrimidinediamine], the IC50 in test [1] (setting [5]) was above 10 µM; in test [2] (setting [6]) it was 0.564 µM.
Turning to `CNC(=O)C1Cc2cc(Nc3ncc(F)c(Nc4ccc(OC(F)(F)F)c(Cl)c4)n3)ccc2O1` (stereo not shown) [Compound R926954, N4-(3-Chloro-4-trifluoromethoxyphenyl)-5-fluoro-N2-[2,3-dihydro-2-[(N-methylamino)carbonyl]benzofuran-5-yl]-2,4-pyrimidinediamine], the figures for the IC50 in test [1] (setting [5]) and in test [2] (setting [6]) were above 10 µM and 0.284 µM, respectively.
Take `CC(C)(CO)c1ccc(Nc2nc(Nc3cccc(OCCO)c3)ncc2F)cc1` [Compound R935161, 5-Fluoro-N4-[4-(2-hydroxy-1,1-dimethylethyl)phenyl]-N2-[3-(2-hydroxyethoxy)phenyl]-2,4-pyrimidinediamine]: the values for the IC50 in test [1] (setting [5]) and in test [2] (setting [6]) were above 10 µM and 0.277 µM, respectively.
Taken in the same sequence, the figures for `CC(C)c1cccc(Nc2ncc(F)c(Nc3cccc(C(C)C)c3)n2)c1` [Compound R940297, N2,N4-Bis(3-isopropylphenyl)-5-fluoro-2,4-pyrimidinediamine] were 10 µM and 3.46 µM.
The corresponding values for `Oc1cccc(Nc2ncc(-c3ccccc3)c(Nc3cccc(O)c3)n2)c1` [Compound R925783, N2,N4-Bis(3-hydroxyphenyl)-5-phenyl-2,4-pyrimidinediamine] are above 10 µM and 2.9 µM.
The corresponding values for `CC(C)(CO)c1ccc(Nc2nc(Nc3ccc(OCCO)cc3)ncc2F)cc1` [Compound R935158, 5-Fluoro-N4-[4-(2-hydroxy-1,1-dimethylethyl)phenyl]-N2-[4-(2-hydroxyethoxy)phenyl]-2,4-pyrimidinediamine] are above 10 µM and 0.551 µM.
For the compound `CNC(=O)C1Cc2cc(Nc3ncc(F)c(Nc4ccc(OC)c(Cl)c4)n3)ccc2O1` (stereo not shown) [Compound R926955, N4-(3-Chloro-4-methoxyphenyl)-5-fluoro-N2-[2,3-dihydro-2-[(N-methylamino)carbonyl]benzofuran-5-yl]-2,4-pyrimidinediamine], the IC50 was above 10 µM in test [1] (setting [5]) and 0.36 µM in test [2] (setting [6]).
Regarding `COc1cc(Nc2ncc(F)c(Nc3cccc(O)c3)n2)c(OC)cc1Cl` [Compound R926857, N2-(4-Chloro-2,5-dimethoxyphenyl)-5-fluoro-N4-(3-hydroxyphenyl)-2,4-pyrimidinediamine], the values for the IC50 in test [1] (setting [5]) and in test [2] (setting [6]) were above 10 µM and 1.21 µM, respectively.
Taken in the same sequence, the figures for `O=C(O)c1cccc(Nc2ncc(F)c(Nc3cccc(C(=O)O)c3)n2)c1` [Compound R945036, N2,N4-Bis(3-carboxyphenyl)-5-fluoro-2,4-pyrimidinediamine] were above 10 µM and above 10 µM.
Taken in the same sequence, the figures for `CCCCCCOc1ccc(Nc2cc(Nc3ccc4c(c3)OCCO4)ncc2F)cc1` [Compound R920672, N4-(4-n-Hexyloxyphenyl)-N2-(3,4-ethylenedioxyphenyl)-5-fluoro-2,4-pyridinediamine] were above 10 µM and above 10 µM.
As for `CCOC(=O)c1nc(Nc2cccc(O)c2)nc(Nc2cccc(O)c2)c1N` [Compound R925856, 5-Amino-6-ethoxycarbonyl-N2,N4-bis(3-hydroxyphenyl)-2,4-pyrimidinediamine], the IC50 is above 10 µM in test [1] (setting [5]) and 9.85 µM in test [2] (setting [6]).
`Oc1cccc(Nc2nc(Cl)c(Cl)c(Nc3cccc(O)c3)n2)c1` [Compound R926591, N2,N4-Bis(3-hydroxyphenyl)-5,6-dichloro-2,4-pyrimidinediamine]: the IC50 was above 10 µM in test [1] (setting [5]) and 2.62 µM in test [2] (setting [6]).
Taken in the same sequence, the figures for `Fc1cnc(Nc2ccc(N3CCN(Cc4ccccc4)CC3)cc2)nc1Nc1ccc2c(c1)OCCO2` [Compound R945163, N2-[4-(N-Benzylpiperazino)phenyl]-N4-(3,4-ethylenedioxyphenyl)-5-fluoro-2,4-pyrimidinediamine] were 4.25 µM and 0.922 µM.
Taken in the same sequence, the figures for `COc1cc(-c2ccccc2)c(C)cc1Nc1ccnc(Nc2cc(C)c(-c3ccccc3)cc2OC)n1` [Compound R925808, N2,N4-Bis(2-methoxy-5-methyl-4-phenylphenyl)-2,4-pyrimidinediamine] were above 10 µM and above 10 µM.
With `O=[N+]([O-])c1cc(Nc2ncc(F)c(Nc3ccc(F)c([N+](=O)[O-])c3)n2)ccc1F` [Compound R950148, N2,N4-Bis(4-fluoro-3-nitrophenyl)-5-fluoro-2,4-pyrimidinediamine], the IC50 in test [1] (Homo sapiens, Mast cell) is above 10 µM; in test [2] (Homo sapiens, Mast cell), 2.27 µM.
With `CCNC(=O)Nc1ccc(Nc2ncc(F)c(Nc3ccc(NC(=O)NCC)cc3)n2)cc1` [Compound R945040, N2,N4-Bis[4-(ethylaminocarbonylamino)phenyl]-5-fluoro-2,4-pyrimidinediamine], the IC50 in test [1] (setting [5]) and in test [2] (setting [6]) was above 10 µM throughout.
Regarding `Clc1ccc(-c2cnc(Nc3ccc4c(c3)OCCO4)nc2Nc2ccc3c(c2)OCCO3)cc1` [Compound R925786, N2,N4-Bis(3,4-ethylenedioxyphenyl)-5-(4-chlorophenyl)-2,4-pyrimidinediamine], the results for the IC50 in test [1] (setting [5]) and in test [2] (setting [6]) were above 10 µM and 1.85 µM, respectively.
Consider `CCOc1ccc(Nc2ncc([N+](=O)[O-])c(Nc3ccc(OCC)cc3)n2)cc1` [Compound R940090, N2,N4-Bis-(4-ethoxypenyl)-5-nitro-2,4-pyrimidinediamine], for which the IC50 in test [1] (setting [3]) and in test [2] (setting [4]) was above 10 µM throughout.
`Nc1cc(Cl)cc(Nc2ccnc(Nc3cc(N)cc(Cl)c3)n2)c1` [Compound R950133, N2,N4-Bis(3-amino-5-chlorophenyl)-2,4-pyrimidinediamine]: the IC50 was above 10 µM in test [1] (setting [5]) and 2.2 µM in test [2] (setting [6]).
Consider `COc1ccc(Nc2nc(Nc3cccc(O)c3)ncc2F)cc1Cl` [Compound R926945, N4-(3-Chloro-4-methoxyphenyl)-5-fluoro-N2-(3-hydroxyphenyl)-2,4-pyrimidinediamine], for which the IC50 in test [1] (setting [5]) is above 10 µM; in test [2] (setting [6]), 0.457 µM.
The corresponding values for `Oc1cccc(Nc2ncc(F)c(NC(c3ccc(Cl)cc3)c3ccc(Cl)cc3)n2)c1` [Compound R935019, 5-Fluoro-N2-(3-hydroxyphenyl)-N4-[di-(4-chlorophenyl)methyl]-2,4-pyrimidinediamine] are above 10 µM and 8.8 µM.
The corresponding values for `COC(=O)c1cc2cc(Nc3ncc(F)c(Nc4cccc(C(C)C)c4)n3)ccc2o1` [Compound R940283, 5-fluoro-N4-(3-isopropylphenyl)-N2-(2-methoxycarbonylbenzofur-5-yl)-2,4-pyrimidinediamine] are 4.98 µM and 0.553 µM.
